Reference: patent US12528840B2, “Transcription active complex targeting cancer drug from viral protein sequence” (The Regents of the University of California, priority 2020, dated 2026)

Tests used:
CD14+ monocytes = test: CD14+ monocyte live/dead staining; assay type: cell-based; details: 16 or 32 μM, 2 days; PBS, LPS, polyIC conditions; vs control peptide or PBS
Description: FIG. 13. Effect of MBK50 on CD14+ monocytes. FIG. 13(a) A scheme of the experimental procedure. CD14+ monocytes were prepared with magnetic beads from the PBMC of healthy donors. Cells were washed and cultured at 1×10^6/ml in a 96 well plate (200 μl/well in triplicates) without or with LPS (100 ng/ml) or poly I:C (10 μg/ml) in the presence of MBK (16 or 32 μM) or mutant peptide (32 μM) for 2 days. Live cells were determined using live/dead staining followed by flow cytometry analysis. FIG. 13(b) A representative flow profile with the gating strategy for live cells is shown. FIG. 13(c) Averages percentage of live cells for each culture condition are shown. **p<0.01, ***p<0.001, ****p<0.0001
Monocytic cells are important antigen-presenting cells bridging innate and antigen-specific immune responses. To evaluate the effect of MBK on monocytic cells, CD14+ monocytes were prepared with magnetic beads from the PBMC of healthy donors. Cells were washed and cultured at 1×10^6/ml in a 96 well plate (200 μl/well in triplicates) without or with LPS (100 ng/ml) or poly I:C (10 μg/ml) in the presence of MBK (16 or 32 μM) or mutant peptide (32 μM) for 2 days. Live cells were determined using live/dead staining, followed by flow cytometry analysis.

B cells = test: B cell expansion in U-bottom plate upon sCD40L or ODN 2006 stimulation; assay type: cell-based; details: 32 μM
Description: B cells were prepared by magnetic beads from healthy donor PBMC (n=2). Representative pictures of B cell culture in a 96 well U-bottom plate in the presence of sCD40L (T cell dependent stimulation) or ODN 2006 (TLR9 ligand)(T cell independent stimulation) at indicated concentration without or with MBK50 (16, 32 μM) or mutant peptide (32 μM). The radius of cell volume in each well roughly correlate to the total cell numbers.

SWI/SNF components = test: ELISA-based binding assay with purified SWI/SNF components; details: biotin-conjugated peptide, HRP-streptavidin detection
From the text: FIG. 17(a) SDS-PAGE analysis of five SWI/SNF components individually prepared from baculovirus infected Sf9 cells. FIG. 17(b) A schematic illustration of ELISA assay to evaluate VGN50 and SWI/SNF interaction. FIG. 17(c) Analysis of VGN50 binding to SWI/SNF components by ELISA. Peptide binding measured as OD values at 450 nm are shown. Mean OD values were compared between the VGN50 and Mut-P in each concentration using unpaired t-test. **p<0.01, *p<0.05, NS: no significance. Data are presented as mean±SD.
To confirm the basis of VGN50 (a.k.a. MBK50) mechanism of action, the biochemical interaction between VGN50 and SWI/SNF proteins (i.e., VGN50 target molecules), were examined by ELISA-based binding assays using purified 5 individual SWI/SNF components prepared from baculovirus-infected Sf9 cells (FIG. 17a). Increasing concentrations of biotin-conjugated VGN50 or Mut-P were incubated in an ELISA plate coated with each SWI/SNF component, and the bound peptides were detected by HRP-streptavidin (FIG. 17b).

[1] = system: monocyte-derived dendritic cells; test: Monocyte-derived dendritic cell live/dead staining and culture images; assay type: cell-based, human
Description: FIG. 14. Effect of MBK50 on CD14+ monocytes. FIG. 14(A) A scheme of the experimental procedure. Monocyte-derived dendritic cells were prepared from magnetic beads sorted CD14+ cells (from PBMC of a healthy donor) after culture for 4 days in the presence of GM-CSF+IL-4 (each 50 ng/ml). Cells were washed and cultured at 1×10^6/ml in a 96 well plate (200 μl/well in triplicates) without or with LPS (100 ng/ml), poly I:C (10 μg/ml), or sCD40L (1 μg/ml) in the presence of MBK50 (16 or 32 μM) or mutant peptide (32 μM) for 2 days. Live cells were determined using live/dead staining followed by flow cytometry analysis. FIG. 14(B) A representative flow profile with the gating strategy for live cells is shown. FIG. 14(C) Averages percentage of live cells for each culture condition are shown. *p<0.05, **p<0.01, ***p<0.001, ****p<0.0001
FIG. 15. Representative images of monocyte derived dendritic cells (MDCs) from two human healthy donors after treatment with MBK50, mutant peptide, or PBS for two days in U-bottom 96 well culture. The diameter of the ring approximately corresponds to the cell volume/numbers in each well.
Similar experiments were also performed with monocyte-derived dendritic cells as a model of human dendritic cells. […] Live cells were determined as shown above using live/dead staining.

BCBL-1 PEL cells = test: Cytokines in ascites of BCBL-1 PEL xenograft mice (Olink inflammatory panel); assay type: in vivo
Description: Also, the effect of peptide on cytokine production by BCBL-1 PEL cells in xenograft mouse model was studied. Acsite was collected from NRG mice baring BCBL-1 PELs, which were either treated with wild type MBK50 (Wt) peptide (n=3), control Mut peptide (n=3) or left untreated (n=3) for 20 days. The levels of cytokines in the ascites were measured by Olink technology using inflammatory panel that can detect 92 inflammatory proteins. Data was analyzed with Olink Insights Stat analysis software. […] Thus, inflammatory protein expression profile of Wt peptide is distinct from the profile of other groups. […] On the right panel in (FIG. 12c), 15 cytokine expression levels expressed in NPX units, Olink's arbitrary unit, on log 2 scale were compared between untreated, mutant peptide and Wt peptide-treated groups.

activated CD3 T cells = test: Cytokine production by anti-CD3 stimulated PBMCs (Luminex 10 plex); assay type: cell-based, human; details: 32 μM, 48 hours, vs untreated and control peptide-treated cultures
Description: The effect of the peptide on cytokine production by human lymphoctyes were studied by an in vitro culture system. PBMCs were stimulated with anti-CD3 antibody in the presence of PBS, MBK50 (32 μM) or Mutant peptide (32 μM) in duplicates for 48 hours. The supernatant was recovered and assayed for 10 common cytokines 4-1(3, IL-2, IL-4, IL-5, IL-6, IL-8, IL-10, GM-CSF, IFNγ, TNFα) with Luminex using human 10 plex beads assay kit (Invitrogen).

LSSILQGLYQLDT [MBK50]
percentage of live cells (CD14+ monocytes): significantly reduced | cell volume in well (correlates to total cell numbers) (B cells; donor #46): significantly reduced | cell volume in well (correlates to total cell numbers) (B cells; donor #47): less so | lowest concentration at which peptide bound the 5 SWI/SNF components (SWI/SNF components): 50 nM | percentage of live cells ([1]; 16 or 32 μM, 2 days, PBS, LPS, sCD40L conditions, vs control peptide or PBS): significantly reduced | appearance of MDCs in culture ([1]; two days, U-bottom 96 well culture): not clumped and were more spread and adhesive | decrease of CXCL10 (BCBL-1 PEL cells): ~200 fold | decrease of VEGFA (BCBL-1 PEL cells): ~4 fold | expression change of the majority of the 15 cytokines (BCBL-1 PEL cells): about 2 fold | PC analysis of 92 inflammatory protein expression profiles (BCBL-1 PEL cells; 20 days treatment): away from the cluster | number of cytokines significantly up- or down-regulated among 92 (BCBL-1 PEL cells; p<0.05): 15 | cytokine levels in supernatant, all detected except IL-10 and TNFα (activated CD3 T cells): significantly reduced
